Tests used:
[1] = test system: tolerance to effects of ethanol; assay: Tolerance to ethanol, grip strength; details: for tolerance to the effect of ethanol on grip strength/body weight (motor-impairment): rats, 3 mg/kg given with ethanol (2.3 and 1.7) on day 1, tested day 2, 30 min post ethanol, 3 mg/kg
[2] = test system: morphine withdrawal signs in rats; assay: Naloxone-precipitated withdrawal from subchronic morphine; assay type: in vivo; details: 10 and 20 mg/kg i.p. before naloxone 1 mg/kg SC, morphine 10 mg/kg SC b.i.d.
Experimental: Forty (40) male Wistar rats served as test subjects in this study. Animals were pair housed with unrestricted access to rodent chow and water (SOP ROD.03.01, SOP ROD.04.01, SOP ROD.18). […] All experimental activity occurring during the animals' light cycle. All animal use procedures were performed in accordance with the principles of the Canadian Council on Animal Care (CCAC).
Forty (40) male Wistar rats were assigned to 5 groups of N=8 rats per group. Group A was dosed with saline vehicle (Sal; subcutaneous (SC) route) twice daily (approx. 08:00±1 h and 18:00±1 h) for 12 days. […] This treatment regimen was designed to induce opioid dependence (Erami et al., 2012). […] On days 9 and 12, rats were tested for naloxone precipitated withdrawal. According to a cross-over design (see Table 4: Treatment Groups), all rats in each group received either acute saline, or naloxone hydrochloride (1 mg/kg; dose volume 2 ml/kg) injection by the SC route, 5 minutes prior to behavioral testing. […] Lofexidine doses are based on literature values (e.g. Shearman et al., 1979). Immediately after vehicle or naloxone injection, rats were transferred to activity chambers for 30 minutes where the animals were visually assessed for somatic signs associated with opioid withdrawal (e.g. writhes, chews, ptosis, WDS, shakes, tremor, penile grooming, body weight change; see Higgins and Sellers, 1994). Simultaneously, the activity pattern (distance travelled, rearing) of each rat was automatically recorded.
Locomotor activity. Spontaneous activity in the rats was measured with the automated Med Associates activity test chamber for 30 minutes with 10-minute time bins. The tracking arena was 17″W×17″L×12″H, sensor bars are secured 1″ above the floor to track distance travelled, and a second set of sensor bars are placed ˜5″ above the floor to measure vertical movement and rearing activity. The parameters set on the tracking software were as follows: resolution—50 milliseconds (ms), box size—4 beams, resting delay—500 ms, and ambulatory trigger—2 (SOP ROD.25). […]

Chronic pain patients = details: chronic pain patients after i.v. R,S-ketamine; Persson et al., 1998; cited from earlier work
patients with depression = details: cited from earlier work

CN[C@@]1(c2ccccc2Cl)CCCCC1=O.Cl [R(−)-ketamine]
Ethanol Tolerance, dose blocking development of tolerance ([1]; grip strength, Present study): 3 - grip strength mg/kg | tolerance to the effect of ethanol on grip strength/body weight (motor-impairment) [1]: tolerance was significantly diminished | tolerance to the effect of ethanol on grip strength/body weight (motor-impairment) ([1]; listed as R-ketamine): blocked | overall morphine withdrawal scores (naloxone-precipitated withdrawal signs) [2]: dose-dependently attenuated overall morphine withdrawal scores | overall morphine withdrawal scores (naloxone-precipitated withdrawal signs) ([2]; listed as R-ketamine): significantly attenuated the naloxone-induced withdrawal signs

CN[C@]1(c2ccccc2Cl)CCCCC1=O [S(+)-ketamine]
Plasma levels of S analyzed (Chronic pain patients): Plasma levels of S analyzed (50-400 ng/ml) | antidepressant effects compared with RS(+/−)-ketamine (0.5 mg/kg, i.v.) (patients with depression; 0.25 mg/kg i.v., treatment-resistant patients with MDD, case report, Non Patent Literature 14): weaker | effective oral doses in patients with depression (patients with depression; oral, Non Patent Literatures 15 and 16): 1.25 mg/kg

From patent US11426367B2, “Methods of treating substance abuse” (Perception Neuroscience, Inc., priority 2018, dated 2022)
